Patent publication US4497803A, “Inclusion compound of lankacidin-group antibiotic and use thereof” (priority 1982, dated 1985)
In brackets after ≈: the same amount, converted by molar mass. Like-named read-outs stand apart in the source and are kept apart here.

Columns and labels:
[1] = Solubility of inclusion compound in water; format: physicochemical
Description: The lankacidin-group is added to each of solutions containing various amounts of cyclodextrin. The minimum concentration of cyclodextrin which dissolves the maximum amount of the lankacidin-group compound and practical concentrations thereof are determined on the basis of amounts of the lankacidin-group compound dissolved in the cyclodextrin solutions. Then, the molar ratio of cyclodextrin to lankacidin-group compound is calculated by the following equation:
Molar ratio=[Molarity of cyclodextrin]:[(Saturation molarity of lankacidin-group compound in a certain concentration of cyclodextrin-solution)-(saturation molarity of lankacidin-group compound in an aqueous solution)].
Moreover, a large amount of the present inclusion compound is dissolved in water and it is kept stably therein. Solubility of the inclusion compound in water is greater than that of landacidin-group compounds in water, when the amount of the inclusion compound dissolved is calculated in terms of lankacidin-group compound, and than saturation concentration of cyclodextrin in water so far as cyclodextrin contained in the inclusion compound is concerned (Table 2).
(1) Solubility of lankacidingroup in water.
(2) Solubility of lankacidingroup in M/100 cyclodextrin solution.
(3) Concentration of cyclodextrin of (2).
(4) Solubility (maximum) of the present inclusion compound (calculated in
terms of lankacidingroup contained) in water.
(5) Concentration of cyclodextrin contained in the inclusion compound of […]

[2] = tested on: St. aureus 209P; test: Stability of inclusion compound of lankacidin-group (24° C., for 6 days): antibacterial activity by paper disk assay; format: cell-based; details: methanol, 100 μg/ml
Description: The inclusion compound of the present invention is stable in an aqueous solution, although it splits into lankacidin-group moiety and cyclodextrins moiety, when it is in the form of solution or powder, by contacting it with organic solvents (e.g., ethyl acetate, methyl isobutyl ketone) or various carriers (e.g., silica gel, high-porous resins). […] In comparing the antibacterial activity, concentrations of the inclusion compound are calculated in terms of lankacidin-group compound from which the inclusion compound is prepared.
Stability of inclusion compound of lankacidin-group
*1 Paper disk assay using Trypticase soy agar (Baltimore Biologicals Ltd.
U.S.A.) as test culture media.
*2 1000 μg/ml, Lankacidingroup is stable in methanol.
*3 Aqueous solution of the inclusion compound with cyclodextrin (1000
μg/ml calculated in terms of lankacidingroup)

[3] = Stability of lankacidin A and C in methanolic aqueous solutions, 40° C., HPLC (Example 7); format: physicochemical; details: for Residual rate / remaining at 6 h: 10 μg/ml, pH 7.0, 40° C.; for Residual rate: 0 hr; for remaining at 6 h: read-out: Residual rate
Description: 5 ml each of a methanolic solution containing lankacidin A or C in a concentration of 100 μg per ml was added to 45 ml each of pH 4.5 and pH 7.0 buffer solutions and a buffer solution containing β-cyclodextrin.
Each mixture was placed in a glass vessel, and then sealed. While the mixtures were kept in the vessel at 40° C., 5 ml each was taken out from time to time and extracted with ethyl acetate. The organic layers were dried over anhydrous sodium sulfate and the concentrations of the lankacidin A or C was measured with high-performance liquid chromatography (HPLC).
Apparatus: Water Associates ALC/GPC 240 (Waters Associates Inc., U.S.A.)
Column: μPoracil 30 cm×3.9 mm.phi.
Eluent: n-Hexane: isopropyl alcohol: acetic acid (75:25:0.2).

[4] = Solubility of lankacidin C in aqueous cyclodextrin solution, shaken at 5° C. for 2 hours (Example 1); format: physicochemical
Description: (§1) Powdery lankacidin C was added to an aqueous solution of cyclodextrin (hereinafter referred to as "CD") to have 4 mg/ml of the lankacidin C contained. After the mixture was stirred with a mixer, it was shaken at 5° C. for 2 hours, and passed through filter paper. The absorbancy of the filtrate was measured at 227-229 nm to determine concentration of the lankacidin C.

[5] = Solubility in β-CD solution, shaken 16 hours (Example 3); format: physicochemical
Description: as §1
The solubilities of lankacidin A, lankacidin C and lankacidinol in a β-CD solution were measured in the same manner as that of Example 1 except that the shaking was continued for 16 hours.

[6] = Solubility of lankacidin-group in β-CD solution (10^-2 Mol/l), shaken 30 minutes to one hour (Example 4); format: physicochemical
Description: as §1
The solubility of lankacidin-group in a solution of β-CD (10^-2 Mol/l) were measured in the same manner as that of Example 1 except that the shaking was continued for 30 minutes to one hour.

[7] = Solubility of C8-P and C14-P in CD solution, shaken one hour (Example 2); format: physicochemical
Description: as §1
Solubilities of lankacidin C 8-propionate (hereinafter referred to as "C8-P"), and lankacidin C 14-propionate (hereinafter referred to as "C14-P") in a solution of CD were measured in the same manner as that of Example 1 except that the shaking was continued for one hour.

[8] = aqueous β-cd solution, β-CD 10^-2 Mol/l
[9] = aqueous β-cd solution, β-CD 10^-3 Mol/l
[10] = aqueous β-cd solution, β-CD 10^-4 Mol/l
[11] = aqueous γ-cd solution, γ-CD 10^-2 Mol/l
[12] = aqueous γ-cd solution, γ-CD 10^-3 Mol/l
[13] = aqueous γ-cd solution, γ-CD 10^-4 Mol/l
[14] = aqueous β-cyclodextrin solution, β-CD 10^-2 Mol/l, read-out: Solubility
[15] = β-CD 0 Mol/l (water), read-out: Solubility

With `OC[C@H]1O[C@@H]2O[C@H]3[C@H](O)[C@@H](O)[C@@H](O[C@H]4[C@H](O)[C@@H](O)[C@@H](O[C@H]5[C@H](O)[C@@H](O)[C@@H](O[C@H]6[C@H](O)[C@@H](O)[C@@H](O[C@H]7[C@H](O)[C@@H](O)[C@@H](O[C@H]8[C@H](O)[C@@H](O)[C@@H](O[C@H]1[C@H](O)[C@H]2O)O[C@@H]8CO)O[C@@H]7CO)O[C@@H]6CO)O[C@@H]5CO)O[C@@H]4CO)O[C@@H]3CO` [cyclodextrin, β-cyclodextrin] the “Concentration of cyclodextrin in its saturated aqueous solution” value ([1]; water) was 1000 µg/mL.
In the case of `CC(=O)C(=O)NC1C=C(C)C=CC(O)CC=C(C)C=CC(O)CC2OC(=O)C1(C)C(=O)C2C` (stereo not shown) [Lankacidin C, lankacidin C], the solubility ([1]; m/100 cyclodextrin solution, M/100 cyclodextrin, (3) cyclodextrin 11.3 mg/ml, read-out: (2) Solubility of lankacidin-group in M/100 cyclodextrin solution) is reported as 3540 µg/mL (≈ 7700 µM), the solubility ([1]; water, read-out: (1) Solubility of lankacidin-group in water) is reported as 268 µg/mL (≈ 583 µM) and the “Antibacterial activity, inhibition diameter” value ([2]; 0 day) is reported as 28.25 mm. For the same compound, the “Antibacterial activity, inhibition diameter” value ([2]; 3 days at 24° C.) was 29.5 mm, the “Antibacterial activity, inhibition diameter” value ([2]; 6 days at 24° C.) was 29.5 mm and the Residual rate ([3]; no β-cyclodextrin) was 100%. For the same compound, the Residual rate ([3]; β-cyclodextrin 10 mg/ml) was 100%, the “Effect of β-cyclodextrin on stability in methanolic aqueous solutions” value ([3]; 1000 times β-CD by weight added) was “increased stabilities” and the remaining at 6 h ([3]; methanolic aqueous buffer, no β-cyclodextrin) was 43.7%. The remaining at 6 h ([3]; methanolic buffer with β-cyclodextrin, β-cyclodextrin 10 mg/ml) was 88.2%, the solubility at 2 h [4, 8] was 3730 µg/mL (≈ 8120 µM) and the solubility at 2 h [4, 9] was 650 µg/mL (≈ 1410 µM). It also gave a solubility at 2 h [4, 10] of 280 µg/mL (≈ 609 µM), a solubility at 2 h [4, 11] of 2390 µg/mL (≈ 5200 µM) and a solubility at 2 h [4, 12] of 460 µg/mL (≈ 1000 µM). The solubility at 2 h [4, 13] was 260 µg/mL (≈ 566 µM), the solubility at 2 h ([4]; aqueous γ-cyclodextrin solution, γ-CD 10^-1 Mol/l) was 3790 µg/mL (≈ 8250 µM) and the solubility at 2 h ([4]; water, β-CD, CD 0 Mol/l) was 260 µg/mL (≈ 566 µM). For the same compound, the solubility at 2 h ([4]; water, γ-CD, CD 0 Mol/l) was 260 µg/mL (≈ 566 µM), the “Solubility in CD solution” value ([4]; β-CD and γ-CD solution) was “high solubility” and the solubility at 16 h ([5]; aqueous β-cd solution, β-CD 2 × 10^-3 Mol/l) was 934 µg/mL (≈ 2030 µM). The solubility at 16 h ([5]; aqueous β-cd solution, β-CD 2 × 10^-4 Mol/l) was 304 µg/mL (≈ 662 µM), the solubility at 16 h ([5]; aqueous β-cd solution, β-CD 5 × 10^-3 Mol/l) was 1780 µg/mL (≈ 3870 µM) and the solubility at 16 h ([5]; aqueous β-cd solution, β-CD 5 × 10^-4 Mol/l) was 409 µg/mL (≈ 890 µM). For the same compound, the solubility at 16 h [5, 8] was 3350 µg/mL (≈ 7290 µM), the solubility at 16 h [5, 9] was 566 µg/mL (≈ 1230 µM) and the solubility at 16 h [5, 10] was 262 µg/mL (≈ 570 µM). For the same compound, the “Solubility in β-CD solution as function of β-CD concentration” value ([5]; from the vicinity of 10^-3 Mol/l of β-CD) was “increase in proportion to the concentration of β-CD”, the solubility at 16 h ([5]; water, β-CD 0 Mol/l) was 237 µg/mL (≈ 516 µM) and the solubility ([5]; β-CD 10^-3 Mol/l, 960 min) was 715 µg/mL (≈ 1560 µM).
For `CCCC(=O)OC1C=CC(C)=CC(NC(=O)C(C)=O)C2(C)C(=O)OC(CC(O)C=CC(C)=CC1)C(C)C2=O` (stereo not shown) [Lankacidin C 8-butylate], the solubility [6, 14] was 404 µg/mL (≈ 763 µM), the solubility [6, 15] was 9 µg/mL (≈ 17 µM) and the “ratio: Solubility in a 10^-2 Mol/l solution of CD/solubility in water” value (from here on “ratio: Solubility”) ([6]; β-CD 10^-2 Mol/l vs water) was 44.9.
For `CC(=O)OC1C=CC(C)=CC(NC(=O)C(C)OC(C)=O)C2(C)C(=O)OC(CC(OC(C)=O)C=CC(C)=CC1)C(C)C2=O` (stereo not shown) [Lankacidinol 2',8,14-triacetate], the “ratio: Solubility” value [6] was 9.0, the solubility ([6]; aqueous β-cyclodextrin solution) was 332 µg/mL (≈ 565 µM) and the solubility ([6]; water) was 36.9 µg/mL (≈ 62.8 µM).
For `CCC(=O)OC1C=CC(C)=CC(NC(=O)C(C)=O)C2(C)C(=O)OC(CC(O)C=CC(C)=CC1)C(C)C2=O` (stereo not shown) [C8-P, lankacidin C 8-propionate], the “Solubility in CD solution, C8-P compared with C14-P” value ([7]; CD solutions) was “better solubility than that of C14-P”, the solubility at 1 h [7, 8] was 3840 µg/mL (≈ 7450 µM) and the solubility at 1 h [7, 9] was 328 µg/mL (≈ 636 µM). The solubility at 1 h [7, 10] was 46 µg/mL (≈ 89.2 µM), the solubility at 1 h [7, 11] was 1610 µg/mL (≈ 3120 µM) and the solubility at 1 h [7, 12] was 249 µg/mL (≈ 483 µM). It also gave a solubility at 1 h [7, 13] of 54 µg/mL (≈ 105 µM), a solubility at 1 h ([7]; water, β-CD, CD 0 Mol/l) of 18 µg/mL (≈ 34.9 µM) and a solubility at 1 h ([7]; water, γ-CD, CD 0 Mol/l) of 19 µg/mL (≈ 36.9 µM).
With `CC(=O)OC1C=CC(C)=CC(NC(=O)C(C)=O)C2(C)C(=O)OC(CC(OC(C)=O)C=CC(C)=CC1)C(C)C2=O` (stereo not shown) [Lankacidin C 8,14-diacetate, lankacidin C 8,14-diacetate] the solubility [6, 14] was 681 µg/mL (≈ 1250 µM), the solubility [6, 15] was 16.2 µg/mL (≈ 29.8 µM) and the “ratio: Solubility” value ([6]; β-CD 10^-2 Mol/l vs water) was 42.0.
For `CC(=O)OC1C=CC(C)=CC(NC(=O)C(C)=O)C2(C)C(=O)OC(CC(O)C=CC(C)=CC1)C(C)C2=O` (stereo not shown) [Lankacidin C 8-acetate, lankacidin C 8-acetate], the solubility [6, 14] was 2770 µg/mL (≈ 5520 µM), the solubility [6, 15] was 74.3 µg/mL (≈ 148 µM) and the “ratio: Solubility” value ([6]; β-CD 10^-2 Mol/l vs water) was 37.3.
